Measurements reported in patent US8951527B2, “Radioprotectants targeting thrombospondin-1 and CD47” (The United States of America, as represented by the …, priority 2008, dated 2015).

Test system: C57BL/6 wild type mice
Assay: Tissue apoptosis (TUNEL) in irradiated hindlimb muscle and bone marrow
Format: in vivo, mouse
Conditions: morpholino 48 hours before 25 Gy, 24 hours post-radiation
Description: FIG. 17. Therapeutic suppression of CD47 prevents radiation-induced apoptosis in muscle and bone marrow. The presence of apoptosis was detected by the TUNEL method as brown nuclear staining. Non-irradiated control hindlimbs (upper panels) and hindlimbs irradiated for a total of 25 Gy all from age and sex matched C57BL/6 wild type mice were prepared for paraffin-embedded tissue sections 24 hours post-radiation and were examined for the presence of apoptotic nuclei. Mice hindlimbs injected with the CD47 morpholino (bottom panels) 48 hours prior to radiation were also prepared in the same manner 24 hours post-radiation. Apoptosis is inferred by intranuclear staining of muscle and bone marrow cells. Images were acquired using a 20× objective.
Tissue apoptosis: The ApopTag in situ detection kit (Chemicon, Millipore, Mass.) was employed following the manufacturer's recommendations In brief, sections undergo deparaffinization, rehydration and washing, followed by treatment with 20 μg/ml of proteinase K for 15 minutes at room temperature and repeat washing. Endogenous peroxidase activity was quenched with 3% H2O2 in PBS for 5 minutes. The 3′-hydroxy DNA strand breaks were enzymatically labeled with digoxygenin nucleotide via TdT and incubated for 1 hour at 37° C., and the reaction terminated with a stop buffer. […]

Sequence: CGTCACAGGCAGGACCCACTGCCCA (all phosphorodiamidate morpholino (PMO)) [CD47 morpholino, CD47 targeting morpholino oligonucleotide]
- apoptosis (TUNEL) in bone marrow: tissue protection extended to the bone marrow compartment
- apoptosis (TUNEL) in skeletal muscle: minimum cell death (apoptosis)
